Columns and labels:
[1] = SD rats drug absorption test
Experimental: The intravenous blood was collected from venous plexus behind eyeballs of rats at different time before and after administration, and the blood plasma is prepared by separated.
Blood samples are collected from an orbit at different time after the administration.

[2] = solvent H2O; stirred strongly 30 seconds in each 5 minutes, observed within 30 minutes
Excerpt: Each compound prepared above was weighted and added to solvents with different volume capacity.

Q: Which results are given for `CCCCc1nc(Cl)c(C(=O)OCOC(=O)OC(C)C)n1Cc1ccc(-c2ccccc2-c2nnn[nH]2)cc1` [Compound 1, 2-butyl-4-chloro-1-[2′-(1H-tetrazol-5-yl)1,1′-biphenyl-methyl]imidazole-5-carboxylic acid, 1-[(isopropoxycarbonyl)oxy]methyl ester]?
A: Bioavailability ([1]; intragastric infusion versus EXP3174 intravenous 7.9 mg/kg, based on plasma EXP3174, 7.9 mg/kg): 4.11%; Tmax ([1]; intragastric infusion, same dosage as EXP3174 (7.9 mg/kg), active metabolite EXP3174 measured in blood plasma by LC-MS/MS): 2 h; Solubility (in H2O) [2]: Slightly soluble (1 g of compound can be dissolved in 100 ml˜1000 ml solvent)

— patent publication US7943648B2, “Salts of imidazole-5-carboxylic acid derivatives, a method for preparing same and pharmaceutical compositions comprising same” (Shanghai Allist Pharmaceutical Inc., priority 2006, dated 2011)
